In the assay the test system is U-937. Description: Inhibition of etoposide-induced apoptosis in human U937 cells assessed as inhibition of caspase 3 induction after 7 hrs. It counts as functional, cell-based. The conditions noted are these: U-937, 7 h.

In brackets after ≈: the same amount, converted by molar mass.

By IC50 is commonly meant the concentration at which inhibition is half-maximal. Take `S=C(S)N1CCCC1` [PYRROLIDINE DITHIOCARBAMATE]: the IC50 amounted to 8.3 µg/mL (≈ 56.4 µM).
The same measure for `COC(=O)C[C@H](OC(=O)/C=C/c1ccc(O)c(O)c1)c1ccc(O)c(O)c1`: 52.4 µg/mL (≈ 140 µM); for `COc1cc(/C=C/C(=O)NC[C@@H](OC)c2ccc(O)cc2)ccc1O`: 10.2 µg/mL (≈ 29.7 µM).

Source of the values: ChEMBL document CHEMBL1150845, “Two new constituents of Isodon excisus and their evaluation in an apoptosis inhibition assay” (J Nat Prod, 2001).
